From patent US9987272B2, “Compound useful for the treatement of degenerative and inflammatory diseases” (GALAPAGOS NV, priority 2011, dated 2018)
“And” between values parts separate entries of the source, which are not always exact repeats. Equal values may be shown once.

Tests used:
[1] = molecular target: T1, Recombinant human JAK1 (catalytic domain, amino acids 866-1154) (Homo sapiens, UniProt P23458); assay: JAK1 Ulight-JAK1 peptide assay; type: biochemical; details: Ulight-JAK1(tyr1023) peptide, 7 μM ATP; individual determinations; read-out: IC50 against JAK1
T1 construct: catalytic domain, amino acids 866-1154; purchased Invitrogen PV4774
Experimental: Recombinant human JAK1 (catalytic domain, amino acids 866-1154; catalog number PV4774) was purchased from Invitrogen. 1 ng of JAK1 was incubated with 20 nM Ulight-JAK1(tyr1023) peptide (Perkin Elmer catalog number TRF0121) in kinase reaction buffer (25 mM MOPS pH6.8, 0.01% Brij-35, 5 mM MgCl2, 2 mM DTT, 7 μM ATP) with or without 4 μL containing test compound or vehicle (DMSO, 1% final concentration), in a total volume of 20 μL, in a white 384 Opti plate (Perkin Elmer, catalog number 6007290). […] Readout is performed using the Envision with excitation at 320 nm and measuring emission at 615 nm (Perkin Elmer). Kinase activity was calculated by subtracting relative fluorescence units (RFU) obtained in the presence of a positive control inhibitor (10 μM staurosporine) from RFU obtained in the presence of vehicle. The ability of a test compound to inhibit this activity was determined as: Percentage inhibition=((RFU determined for sample with test compound present−RFU determined for sample with positive control inhibitor) divided by (RFU determined in the presence of vehicle−RFU determined for sample with positive control inhibitor))*100.
A dose dilution series was prepared for the compound enabling the testing of dose-response effects in the JAK1 assay and the calculation of the IC50 for the compound. […] The data are expressed as the average IC50 from the assays±standard error of the mean.

[2] = molecular target: T2, Recombinant human JAK2 (catalytic domain) (Homo sapiens, UniProt O60674); assay: JAK2 Ulight-JAK1 peptide assay; type: biochemical; details: Ulight-JAK1(tyr1023) peptide, 7.5 μM ATP; individual determinations; read-out: IC50 against JAK2
T2 construct: Recombinant human JAK2 catalytic domain (amino acids 808-1132; catalog number PV4210); purchased Invitrogen PV4210
Experimental: Recombinant human JAK2 (catalytic domain, amino acids 866-1154; catalog number PV4210) was purchased from Invitrogen. 0.0125 mU of JAK2 was incubated with 25 nM Ulight-JAK1(tyr1023) peptide (Perkin Elmer catalog number TRF0121) in kinase reaction buffer (25 mM HEPES pH7.0, 0.01% Triton X-100, 7.5 mM MgCl2, 2 mM DTT, 7.5 μM ATP) with or without 4 μL containing test compound or vehicle (DMSO, 1% final concentration), in a total volume of 20 μL, in a white 384 Opti plate (Perkin Elmer, catalog number 6007290). […] Readout is performed using the Envision with excitation at 320 nm and measuring emission at 615 nm (Perkin Elmer). Kinase activity was calculated by subtracting relative fluorescence units (RFU) obtained in the presence of a positive control inhibitor (10 μM staurosporine) from RFU obtained in the presence of vehicle. The ability of a test compound to inhibit this activity was determined as: Percentage inhibition=((RFU determined for sample with test compound present−RFU determined for sample with positive control inhibitor) divided by (RFU determined in the presence of vehicle−RFU determined for sample with positive control inhibitor))*100. […]

[3] = molecular target: T3, Recombinant human JAK3 catalytic domain (Homo sapiens, UniProt P52333); assay: JAK3 inhibition assay; type: biochemical; details: polyGT substrate, 1 μM ATP, 33P-gamma-ATP; individual determinations; read-out: IC50 against JAK3
T3 construct: catalytic domain (amino acids 795-1124; catalog number 08-046); purchased Carna Biosciences 08-046
Experimental: Recombinant human JAK3 catalytic domain (amino acids 795-1124; catalog number 08-046) was purchased from Carna Biosciences. 0.5 ng JAK3 protein was incubated with 2.5 μg polyGT substrate (Sigma catalog number P0275) in kinase reaction buffer (25 mM Tris pH 7.5, 0.5 mM EGTA, 10 mM MgCl2, 2.5 mM DTT, 0.5 mM Na3VO4, 5 mM b-glycerolphosphate, 0.01% Triton X-100, 1 μM non-radioactive ATP, 0.25 μCi 33P-gamma-ATP (Perkin Elmer, catalog number NEG602K001MC) final concentrations) with or without 5 μL containing test compound or vehicle (DMSO, 1% final concentration), in a total volume of 25 μL, in a polypropylene 96-well plate (Greiner, V-bottom). After 45 min at 30° C., reactions were stopped by adding 25 μL/well of 150 mM phosphoric acid. […] 40 μL/well of Microscint-20 was added, the top of the plates was sealed and readout was performed using the Topcount (Perkin Elmer). Kinase activity was calculated by subtracting counts per min (cpm) obtained in the presence of a positive control inhibitor (10 μM staurosporine) from cpm obtained in the presence of vehicle. The ability of a test compound to inhibit this activity was determined as: Percentage inhibition=((cpm determined for sample with test compound present−cpm determined for sample with positive control inhibitor) divided by (cpm determined in the presence of vehicle−cpm determined for sample with positive control inhibitor))*100. […]

[4] = molecular target: T4, Recombinant human TYK2 catalytic domain (Homo sapiens, UniProt P29597); assay: TYK2 inhibition assay; type: biochemical; details: polyGT substrate, 0.1 μM ATP, 33P-gamma-ATP; individual determinations; read-out: IC50 against TYK2
T4 construct: catalytic domain (amino acids 871-1187; catalog number 08-147); purchased Carna Biosciences 08-147
T4 sequence (P29597 871-1187): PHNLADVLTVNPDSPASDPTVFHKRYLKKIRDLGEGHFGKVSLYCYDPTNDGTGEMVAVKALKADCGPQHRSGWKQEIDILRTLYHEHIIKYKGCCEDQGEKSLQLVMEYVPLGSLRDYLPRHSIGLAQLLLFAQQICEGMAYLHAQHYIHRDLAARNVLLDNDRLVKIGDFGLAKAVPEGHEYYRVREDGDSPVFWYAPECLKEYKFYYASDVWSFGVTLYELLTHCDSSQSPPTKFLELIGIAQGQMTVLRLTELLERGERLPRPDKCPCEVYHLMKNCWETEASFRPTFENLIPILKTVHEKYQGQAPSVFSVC
Experimental: Recombinant human TYK2 catalytic domain (amino acids 871-1187; catalog number 08-147) was purchased from Carna biosciences. 4 ng of TYK2 was incubated with 12.5 μg polyGT substrate (Sigma catalog number P0275) in kinase reaction buffer (25 mM Hepes pH 7.2, 50 mM NaCl, 0.5 mM EDTA, 1 mM DTT, 5 mM MnCl2, 10 mM MgCl2, 0.1% Brij-35, 0.1 μM non-radioactive ATP, 0.125 μCi ^33P-gamma-ATP (Perkin Elmer, catalog number NEG602K001MC) final concentrations) with or without 5 μL containing test compound or vehicle (DMSO, 1% final concentration), in a total volume of 25 μL, in a polypropylene 96-well plate (Greiner, V-bottom). After 90 min at 30° C., reactions were stopped by adding 25 μL/well of 150 mM phosphoric acid. […] 40 μL/well of Microscint-20 was added, the top of the plates was sealed and readout was performed using the Topcount (Perkin Elmer). Kinase activity was calculated by subtracting counts per min (cpm) obtained in the presence of a positive control inhibitor (10 μM staurosporine) from cpm obtained in the presence of vehicle. The ability of a test compound to inhibit this activity was determined as: Percentage inhibition=((cpm determined for sample with test compound present−cpm determined for sample with positive control inhibitor) divided by (cpm determined in the presence of vehicle−cpm determined for sample with positive control inhibitor))*100. […]

[5] = molecular target: T5, TYK2 (Homo sapiens, UniProt P29597); assay: TYK2 Ki determination assay; type: biochemical; details: Lineweaver-Burk plot, polyGT substrate, varying ATP
T5 construct: catalytic domain (amino acids 871-1187; catalog number 08-147); purchased Carna Biosciences 08-147
T5 sequence (P29597 871-1187): T4 sequence (P29597 871-1187)
Experimental: For the determination of Ki, different amounts of compound are mixed with the enzyme and the enzymatic reaction is followed as a function of ATP concentration. The Ki is determined by means of double reciprocal plotting of Km vs compound concentration (Lineweaver-Burk plot). TYK2 (Carna Biosciences, 08-147) was used at a final concentration of 160 ng/ml. The substrate was Poly(Glu,Tyr)sodium salt (4:1), MW 20 000-50 000 (Sigma, P0275) The reaction was performed in 25 mM Hepes pH 7.2, 50 mM NaCl, 0.5 mM EDTA, 1 mM DTT, 5 mM MnCl2, 10 mM MgCl2, 0.1% Brij-35 with varying concentrations of ATP and compound and stopped by addition of 150 mM phosphoric acid. Measurement of incorporated phosphate into the substrate polyGT was done by loading the samples on a filter plate (using a harvester, Perkin Elmer) and subsequent washing. Incorporated ^33P in polyGT is measured in a Topcount scintillation counter after addition of scintillation liquid to the filter plates (Perkin Elmer).

[6] = tested on: JAK-STAT; assay: JAK-STAT signalling assay; type: cell-based; details: HeLa cells, pSTAT1(2)-luciferase reporter, human OSM 33 ng/mL; read-out: IC50 against JAK-STAT
Experimental: HeLa cells were maintained in Dulbecco's Modified Eagle's Medium (DMEM) containing 10% heat inactivated fetal calf serum, 100 U/mL penicillin and 100 μg/mL streptomycin. HeLa cells were used at 70% confluence for transfection. 20,000 cells in 87 μL cell culture medium were transiently transfected with 40 ng pSTAT1(2)-luciferase reporter (Panomics), 8 ng of LacZ reporter as internal control reporter and 52 ng of pBSK using 0.32 μL Jet-PEI (Polyplus) as transfection reagent per well in 96-well plate format. After overnight incubation at 37° C., 5% CO2, transfection medium was removed. 81 μL of DMEM+1.5% heat inactivated fetal calf serum was added. 9 μL compound at 10× concentration was added for 60 min and then 10 μL of human OSM (Peprotech) at 33 ng/mL final concentration. […]
40 μL of cell lysate was used to read β-galactosidase activity by adding 180 μL β-Gal solution (30 μl ONPG 4 mg/mL+150 μL β-Galactosidase buffer (0.06 M Na2HPO4, 0.04 M NaH2PO4, 1 mM MgCl2)) for 20 min. The reaction was stopped by addition of 50 μL Na2CO3 1 M. Absorbance was read at 405 nm.
Luciferase activity was measured using 40 μL cell lysate plus 40 μL of Steadylite® as described by the manufacturer (Perkin Elmer), on the Envision (Perkin Elmer). […]

T3 sequence (P52333 795-1124): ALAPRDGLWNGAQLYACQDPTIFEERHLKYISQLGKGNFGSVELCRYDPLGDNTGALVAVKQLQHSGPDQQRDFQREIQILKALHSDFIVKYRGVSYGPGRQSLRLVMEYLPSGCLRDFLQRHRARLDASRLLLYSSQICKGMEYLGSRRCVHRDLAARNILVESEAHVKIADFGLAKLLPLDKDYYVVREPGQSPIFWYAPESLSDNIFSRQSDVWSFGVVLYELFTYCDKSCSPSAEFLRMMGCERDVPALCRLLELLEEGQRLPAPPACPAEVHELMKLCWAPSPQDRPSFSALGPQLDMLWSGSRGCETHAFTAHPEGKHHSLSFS
T1 sequence (P23458 866-1154): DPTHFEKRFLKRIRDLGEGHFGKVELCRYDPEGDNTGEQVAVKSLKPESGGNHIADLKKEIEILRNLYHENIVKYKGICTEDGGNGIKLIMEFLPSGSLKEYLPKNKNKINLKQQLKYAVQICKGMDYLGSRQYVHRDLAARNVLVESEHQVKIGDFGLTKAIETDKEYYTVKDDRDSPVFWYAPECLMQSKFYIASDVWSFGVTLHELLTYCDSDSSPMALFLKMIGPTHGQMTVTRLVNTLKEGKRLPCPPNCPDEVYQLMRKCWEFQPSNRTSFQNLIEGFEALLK
T2 sequence (O60674 808-1132): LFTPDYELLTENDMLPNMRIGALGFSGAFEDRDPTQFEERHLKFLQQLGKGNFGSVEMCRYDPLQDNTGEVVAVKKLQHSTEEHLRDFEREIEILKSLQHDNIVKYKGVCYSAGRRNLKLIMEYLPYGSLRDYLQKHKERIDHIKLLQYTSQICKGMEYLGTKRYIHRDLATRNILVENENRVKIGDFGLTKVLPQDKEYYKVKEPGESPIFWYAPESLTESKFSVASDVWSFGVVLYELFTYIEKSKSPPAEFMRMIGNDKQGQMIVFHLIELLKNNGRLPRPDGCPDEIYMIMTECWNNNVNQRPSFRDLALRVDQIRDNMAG

CC(=O)Nc1cc2c(-c3ccc(CN4CCN(S(C)(=O)=O)CC4)c(F)c3)cccn2n1 [Compound 1]
IC50 [1]: 8.18 nM and 11.5 nM and 7.71 nM and 35.2 nM and 7.85 nM
IC50 [2]: 17.3 nM and 11.3 nM and 9.57 nM and 26 nM and 18.2 nM
IC50 [3]: 271 nM and 299 nM and 213 nM and 428 nM
IC50 [4]: 167 nM and 135 nM and 119 nM and 157 nM
Ki [5]: 110 nM
IC50 [6]: 970 nM
